From ChEMBL document CHEMBL5661943, “ASAP - In vitro antiviral effect” (2024)

Key:
Zika virus [1] = experiment: EC50 is reported via analysis of immunofluorescence staining. The assay has been performed by Icahn School of Medicine at Mount Sinai.; assay type: functional, organism-based, Chlorocebus sabaeus, VeroE6/TMPRSS2; settings: Zika virus, VeroE6/TMPRSS2
Zika virus [2] = experiment: (§1) Functional CPE-based assay to measure dose dependent changes in antiviral-drug inhibitory efficacy against Zika virus MR766 in Vero E6 miRFP670 cells. Cells are treated with antiviral candidates that are serially diluted. EC50 is reported via analysis of MTS assay as a readout of CPE. The assay has been performed by KU Leuven.; assay type: organism-based, Chlorocebus sabaeus, Vero C1008; settings: Zika virus; for EC50: Vero C1008
dengue virus type 2 = experiment: Functional assay to measure dose dependent changes in antiviral-drug inhibitory efficacy against Dengue virus type 2 New Guinea C in Vero E6 miRFP670 cells (cotreated with P-gp inhibitor, CP100356). Cells are treated with antiviral candidates that are serially diluted, following infection, cells are fixed. EC50 is reported via analysis of fluorescence intensity using high-content imager. The …; assay type: organism-based, Chlorocebus sabaeus, Vero C1008; settings: for EC90: P-gp concentration 500 nM, P-gp inhibitor CP100356
Zika virus [3] = experiment: as §1, with “cells (cotreated with P-gp inhibitor, CP100356).” for “cells.”; assay type: organism-based, Chlorocebus sabaeus, Vero C1008; settings: Zika virus; for EC90: P-gp concentration 500 nM, P-gp inhibitor CP100356

## CCc1nc2c(C(=O)Nc3ccc4c(c3)CNC4)cc(Br)cc2[nH]1
Zika virus [1]
  EC50: > 5.56 µM
Zika virus [1]; Baseline response 0 %, Hill slope 0.058, Maximum measured 88.326 %, Maximum response 100 %, Minimum measured 53.216 %, P-gp concentration 2 uM, R squared 0.024, P-gp inhibitor Elacidar
  EC90: > 5.56 µM
Zika virus [2]
  EC50: > 50 µM
Zika virus [2]; Vero C1008, Baseline response 0 %, Hill slope 0.303, Maximum measured 9.479 %, Maximum response 100 %, Minimum measured 2.16 %, R squared 0.852
  EC90: > 50 µM
Dengue virus type 2; Dengue virus, Vero C1008
  EC50: > 50 µM
Dengue virus type 2; Dengue virus, Vero C1008, Maximum measured 122.691 %, Minimum measured 98.084 %
  EC90: > 50 µM

## NCCc1ccc([C@H]2C[C@@H]2c2cc(Cl)cc(NC(=O)OCc3ccccc3)c2)cc1
Zika virus [2]
  EC50: > 50 µM
Zika virus [2]; Vero C1008, Maximum measured 1.279 %, Minimum measured -5.481 %
  EC90: > 50 µM
Zika virus [3]; Vero C1008
  EC50: > 50 µM
Zika virus [3]; Vero C1008, Maximum measured 6.997 %, Minimum measured -5.737 %
  EC90: > 50 µM
Dengue virus type 2; Dengue virus, Vero C1008
  EC50: > 3.12 µM
Dengue virus type 2; Dengue virus, Vero C1008, Maximum measured 120.903 %, Minimum measured 100.357 %
  EC90: > 3.12 µM
Dengue virus type 2; Dengue virus, Vero C1008, Maximum measured 221.095 %, Minimum measured 80.639 %
  EC90: > 6.25 µM
Dengue virus type 2; vero c1008
  EC50: > 6.25 µM

## O=C(Nc1cc(Cl)cc(-c2ccc3cc(C(=O)O)[nH]c3c2)c1)OCc1ccccc1
Zika virus [2]
  EC50: > 50 µM
Zika virus [2]; Vero C1008, Maximum measured -0.377 %, Minimum measured -2.566 %
  EC90: > 50 µM
Zika virus [3]; Vero C1008
  EC50: > 50 µM
Zika virus [3]; Vero C1008, Baseline response 0 %, Hill slope 0.219, Maximum measured 11.412 %, Maximum response 100 %, Minimum measured -1.306 %, R squared 0.087
  EC90: > 50 µM
Dengue virus type 2; Dengue virus, Vero C1008
  EC50: 27.6 µM
Dengue virus type 2; Dengue virus, Vero C1008, Baseline response 0 %, Hill slope -2.588, Maximum measured 127.292 %, Maximum response 100 %, Minimum measured 18.339 %, R squared 0.622
  EC90: > 50 µM

## O=C(O)c1cc2cc(-c3cc(Cl)cc(C4CC4)c3)ccc2[nH]1
Zika virus [2]
  EC50: > 50 µM
Zika virus [2]; Vero C1008, Baseline response 0 %, Hill slope 0.633, Maximum measured 10.894 %, Maximum response 100 %, Minimum measured 0.566 %, R squared 0.67
  EC90: > 50 µM
Zika virus [3]; Vero C1008
  EC50: > 50 µM
Zika virus [3]; Vero C1008, Baseline response 0 %, Hill slope 0.262, Maximum measured 7.755 %, Maximum response 100 %, Minimum measured -1.169 %, R squared 0.013
  EC90: > 50 µM
Dengue virus type 2; Dengue virus, Vero C1008
  EC50: 45.8 µM
Dengue virus type 2; Dengue virus, Vero C1008, Baseline response 0 %, Hill slope -21.982, Maximum measured 163.66 %, Maximum response 100 %, Minimum measured 12.537 %, R squared 0.152
  EC90: > 50 µM

## C[C@@]1(c2cccc(CN)c2)C[C@H]1c1cc(Cl)cc(NC(=O)OCc2ccccc2)c1
Zika virus [2]
  EC50: > 50 µM
Zika virus [2]; Vero C1008, Maximum measured 2.64 %, Minimum measured -3.015 %
  EC90: > 50 µM
Dengue virus type 2; Dengue virus, Vero C1008
  EC50: 2.11 µM
Dengue virus type 2; Dengue virus, Vero C1008, Baseline response 0 %, Hill slope -1.211, Maximum measured 80.402 %, Maximum response 100 %, Minimum measured 6.127 %, R squared 0.862
  EC90: > 6.25 µM

## Cn1ncc2c(C(=O)Nc3ccc4c(c3)CNC4)cc(Br)cc21
Zika virus [2]
  EC50: > 50 µM
Zika virus [2]; Vero C1008, Baseline response 0 %, Hill slope 2.334, Maximum measured 28.881 %, Maximum response 100 %, Minimum measured -5.706 %, R squared 0.821
  EC90: > 50 µM
Dengue virus type 2; Dengue virus, Vero C1008
  EC50: < 0.391 µM
Dengue virus type 2; Dengue virus, Vero C1008, Baseline response 0 %, Hill slope 1.42, Maximum measured 130.593 %, Maximum response 100 %, Minimum measured 71.5 %, R squared 0.202
  EC90: < 0.391 µM

## NCc1cc(Cl)cc(C(=O)Nc2ccc3c(c2)CNC3)c1
Zika virus [2]
  EC50: > 50 µM
Zika virus [2]; Vero C1008, Maximum measured 0.38 %, Minimum measured -0.268 %
  EC90: > 50 µM
Dengue virus type 2; Dengue virus, Vero C1008
  EC50: > 50 µM
Dengue virus type 2; Dengue virus, Vero C1008, Maximum measured 110.007 %, Minimum measured 106.028 %
  EC90: > 50 µM
